Assay results as given in EP4048709B1, “A DRUG FOR THE TREATMENT OF CERVICAL CANCER” (Yildiz Teknik Universitesi, priority 2020, dated 2022).

Experiments:
[1] = tested on: HeLa cells; assay: proliferation rate analysis (MTT, mitochondrial dehydrogenase enzyme activity); assay type: cell-based, human; conditions: for absorbance values / viability of cells: 24 hours; for absorbance values: MTT, 570 nm with reference to 690 nm, control group 590×10^-3; for viability of cells: control group considered 100%
Procedure: Different concentrations of In(III)Pc complex were applied to cultured human cervical cancer originated HeLa cells for 24 hours in order to determine the changes in mitochondrial dehydrogenase enzyme activity of cancer cells by means of the In(III)Pc complex obtained. For proliferation rate analysis, routinely cultured HeLa cells were cultivated in culture plates with 96 wells such that the growth medium is 3×10^4 cell/ml per well. In(III)Pc complex prepared at 50 µM, 100 µM, and 150 µM concentrations were applied to the cells after waiting for the cells to adhere and spread. The growth medium in the wells was withdrawn and 40 µl of 3-(4,5-dimethylthiazol-2-yl)-2,5-diphenyltetrazolium bromide (MTT) (5mg/ml) was added at the end of the experiment periods. 160 µl of dimethyl sulfoxide (DMSO) was added to the wells with MTT and incubated for 1 hour in a shaker incubator after waiting for approximately 4 hours. The absorbance values of the formed experimental groups were carried out by means of the spectrophotometer measurements at 570 nm with reference to the 690 nm wavelength after the formazan crystals formed are dissolved for the 1 hour incubation period. The absorbance values obtained as a result of this application were measured as 590×10^-3 for the control group; 460 ×10^-3 for 50 µM; 280 ×10^-3 for 100 µM, and 170 ×10^-3 for 150 µM.

[2] = tested on: HeLa cells; assay: cell index, real-time cell analysis system; assay type: cell-based, human; conditions: 72 hours
Procedure: In the present invention, the cell index parameter was evaluated by means of using a real-time cell analysis system in order to both support the results obtained and to determine the types of cell death, and an E-Plate with 16 wells was used in order to evaluate this parameter. Primarily, 100 µl of growth medium was added to each well of the E-Plate, and background measurements were taken in the cell analyzer device. Then, cultivation is performed in each well such that the 100 µl of growth medium has 6000 cells for HeLa cells. The E-Plates were incubated for 20 minutes in a sterile working cabinet at room temperature, and then placed in the cell analyzer device and incubation was continued at 37°C under ambient conditions of 5% carbon dioxide (CO2) after the cultivation process. The cell analyzer was issued a command to take the measurement every 15 minutes after the cell cultivation to the E-Plates was performed. After approximately 24 hours of cell cultivation, the growth medium in the E-Plates was changed with a growth medium containing different concentrations of In(III)Pc complex at the 1/3rd slice of the proliferation phase of the cells, and measurements were continued at 15-minute intervals for 72 hours. Subsequently, graphics of concentration and time-dependent cell index values were transferred to the computer screen. The antiproliferative effects of the In(III)Pc complex on HeLa cells are observed when the cell index values obtained from the real-time cell analysis system are examined.

[3] = tested on: HeLa cells; assay: mitotic index (Feulgen method, Giemsa staining); assay type: cell-based, human; conditions: 100 µM
Procedure: As a result of applying the optimum concentration of the product(100 µM) on HeLa cells for 0-72 hours, the preparations prepared according to the experimental groups were primarily hydrolyzed with 1 N hydrochloric acid (HCl) at room temperature for 1 minute and then with 1 N HCl at 60°C for 10 minutes in order to determine the effects on the mitotic index values of the cells. After hydrolysis, the Feulgen method was applied to the preparations for 1 hour. Then, these preparations were washed 3 times for 2 minutes with a washing solution, which is specific to the Feulgen method, and air-dried. After the preparations were dried, they were prepared for counting by means of staining with Giemsa dye for 2 minutes. Late prophase, metaphase, anaphase, and telophase stages were counted in order to determine the mitosis index (MI) values of said preparations. The early prophase stage was evaluated together with this stage, as it was morphologically similar to the cells in the interphase group.
Three preparations were evaluated for each experimental group and mitosis index values were determined by means of counting 3000 cells on average from each preparation. The mitosis index values have been decreased from 6% to 3,7% at the 24th hour; from 6,68% to 2,21% at the 48th hour, and from 7,56% to 1,19% at the 72nd hour.

[4] = singlet oxygen quantum yield (DPBF quencher, ZnPc standard); assay type: physicochemical; conditions: irradiated in the Q band area, room conditions, Figure 7
Procedure: Singlet oxygen quantum yields of the inventive Compound 2 were calculated by means of Zinc (II) phthalocyanine (ZnPc) standard and 1,3-diphenylisobenzofuran (DPBF) singlet oxygen quencher at room conditions via using Equation-2 below: ΦΔ = ΦΔ^Std .(RDPBF .Iabs^Std)/(RDPBF^Std .Iabs) [formula] wherein, • Φ^StdΔ; the singlet oxygen yield (ZnPc ΦΔ = 0,53 in THF) • ΦΔ; for example, singlet oxygen yield, • RDPBF; the degradation rate of DPBF in the presence of the sample, • ROPBFstd; the degradation rate of DPBF in the presence of the standard, • Iabs; the light absorption rate of sample and standard, • IabStd; the light absorption rate of the standard.
DPBF with a concentration of […] was used in order to prevent chain reactions caused by the presence of singlet oxygen. Solutions of a sensitizer containing DPBF (absorbance at irradiation wavelength = 2.0) were prepared in a dark environment and irradiated in the Q band area by means of using the setup described above. This yield was found as 49%, according to Figure 7. […]

[5] = photodegradation quantum yield under irradiation; assay type: physicochemical
Procedure: DPBF with a concentration of […] was used in order to prevent chain reactions caused by the presence of singlet oxygen. Solutions of a sensitizer containing DPBF (absorbance at irradiation wavelength = 2.0) were prepared in a dark environment and irradiated in the Q band area by means of using the setup described above. This yield was found as 49%, according to Figure 7. The maximum absorbance of the Q band in the solutions of all complexes was set to 1.0 in the solvent used in order to determine the photodegradation quantum yield (Φd), and the decrease in the intensity of the Q band under irradiation with time is observed by means of using the following Equation-3: Φd = ((C0−Ct).V.NA)/(Iabs .S.t) [formula] wherein, • C0 (mol.dm^-3); concentration of Compound 2 before irradiation, • Ct (mol.dm^-3); concentration of Compound 2 […]; reaction volume (3.0 cm^3), • S; irradiated cell area, • t; irradiation time, • NA; Avogadro's number, • Iabs; the overlapping integration of the radiation source intensity. […] It has been observed that Compound 2 is active in destroying cancer cells, and as such may have a potential for the treatment of cancer with PDT when considering the PDT characteristic measurement results described above.

[6] = solubility in common solvents; assay type: physicochemical; conditions: chloroform, acetone, THF, ethanol, methanol, DMF or DMSO
Procedure: The compound obtained by means of the aforementioned method is in the form of a dark green crystal, and the yield thereof is 82 mg (16,14%). The closed formula of Compound 2, which has a melting point >300°C is C89H99InN8O6, and its molecular weight is 1491,61 g/mol. It has been determined that C, 71.66; H, 6.69; […]; N, 7.51; O, 6.44 when the theoretical elemental analysis of the compound was performed. FTIR analysis was conducted in order to shed light upon the structure of said Compound 2 and it is illustrated in Figure 3. […] Table 1. The solubility data of the In(III) Pc compound.

[7] = standard, in THF; cited from earlier work

Question: For “1,8(11), 15(18),22(25)-tetra-(3,5-di-tert-butylphenoxy) indium (III) phthalocyanine [Compound 2]”, which absorbance values ([1]; 50 µM) is on record?
Answer: Its absorbance values is 460 ×10^-3.

Question: What about the viability of cells ([1]; 50 µM) of the same compound?
Answer: Its viability of cells is 78%.

Question: What about the “death of the cells” value ([1]; 100 µM) of the same compound?
Answer: The value was 52.55%.

Question: What about the absorbance values ([1]; 100 µM) of the same compound?
Answer: Its absorbance values is 280 ×10^-3.

Question: And the viability of cells ([1]; 100 µM)?
Answer: Its viability of cells is 47.45%.

Question: What about the absorbance values ([1]; 150 µM) of the same compound?
Answer: The absorbance values was 170 ×10^-3.

Question: What about the viability of cells ([1]; 150 µM) of the same compound?
Answer: The viability of cells was 28.81%.

Question: What about the IC50 ([1]; HeLa cells, read-out: IC50 concentration) of the same compound?
Answer: The IC50 was 100 µM.

Question: What about the “effect on cell index values compared with standard curves” value (“effect on cell index values” below) ([2]; 50 µM) of the same compound?
Answer: The value was “does not show a significant effect”.

Question: What about the “effect on cell index values” value ([2]; 100 µM (optimum concentration)) of the same compound?
Answer: Its value is “DNA damaging effect”.

Question: What about the “effect on cell index values” value ([2]; 100 µM (optimum concentration), listed as In(III)Pc complex) of the same compound?
Answer: The value was “DNA damage”.

Question: And the “effect on cell index values” value ([2]; 150 µM)?
Answer: Its value is “cytoskeletal effect”.

Question: And the mitosis index values ([3]; 24th hour, decreased from 6%)?
Answer: Its mitosis index values is 3,7%.

Question: What about the mitosis index values ([3]; 48th hour, decreased from 6,68%) of the same compound?
Answer: Its mitosis index values is 2,21%.

Question: And the mitosis index values ([3]; 72nd hour, decreased from 7,56%)?
Answer: The mitosis index values was 1,19%.

Question: What about the singlet oxygen yield [4] of the same compound?
Answer: Its singlet oxygen yield is 49%.

Question: What about the “photodegradation quantum yield (Φd)” value ([5]; Q band absorbance set to 1.0, irradiation with time) of the same compound?
Answer: The value was 2,0017×10^-05.

Question: What about the “stability under the light” value ([5]; from the photodegradation quantum yield) of the same compound?
Answer: The value was “stable under the light”.

Question: And the solubility [6]?
Answer: The solubility was “capable of getting dissolved in common solvents”.

Question: For [Zn+2].c1ccc2c(c1)-c1nc-2nc2[n-]c(nc3nc([n-]c4nc(n1)-c1ccccc1-4)-c1ccccc1-3)c1ccccc21 [ZnPc, Zinc (II) phthalocyanine], which “singlet oxygen yield ΦΔ” value [7] is on record?
Answer: Its value is 0,53.
